pIC50: −log10 of the molar value.
Assays:
human CYP11B1 = target: T1, human CYP11B1 (Homo sapiens, UniProt P15538); assay: Inhibition of hCYP11B1 in transfected V79 cells; assay type: cell-based; settings: hamster V79 cells expressing human CYP11B1; substrate 11-deoxycortisol 200 nM
T1 construct: expressed in transfected cells
T1 sequence (P15538 25-503): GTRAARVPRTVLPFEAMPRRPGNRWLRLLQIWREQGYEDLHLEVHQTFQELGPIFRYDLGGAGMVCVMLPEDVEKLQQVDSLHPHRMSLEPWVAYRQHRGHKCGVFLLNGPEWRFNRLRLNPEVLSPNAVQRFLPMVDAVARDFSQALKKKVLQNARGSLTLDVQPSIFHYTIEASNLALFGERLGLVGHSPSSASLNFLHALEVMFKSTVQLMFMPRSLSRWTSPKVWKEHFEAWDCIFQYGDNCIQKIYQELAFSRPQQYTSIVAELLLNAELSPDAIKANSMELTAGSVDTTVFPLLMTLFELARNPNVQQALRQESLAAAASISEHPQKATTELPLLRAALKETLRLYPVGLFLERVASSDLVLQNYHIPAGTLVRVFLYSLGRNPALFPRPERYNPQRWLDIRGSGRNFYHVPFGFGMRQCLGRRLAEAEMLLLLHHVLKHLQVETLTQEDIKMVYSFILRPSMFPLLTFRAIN
Procedure, shortened: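 Reactions started with 200 nM 11-deoxycortisol, ran for 30 min and were stopped with ethyl acetate, after a 2 h compound preincubation. The host was stably transfected V79 hamster cells carrying human CYP11B1 plus rat P450 reductase. Percent inhibition, from LC-MS/MS or HPLC (260 nm) quantitation of substrate and product, gave the IC50.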

human CYP11B2 = target: T2, human CYP11B2 (Homo sapiens, UniProt P19099); assay: Inhibition of hCYP11B2 in transfected V79 cells; assay type: cell-based; settings: hamster V79 cells expressing human CYP11B2; substrate 11-deoxycorticosterone 200 nM
T2 construct: expressed in transfected cells
T2 sequence (P19099 25-503): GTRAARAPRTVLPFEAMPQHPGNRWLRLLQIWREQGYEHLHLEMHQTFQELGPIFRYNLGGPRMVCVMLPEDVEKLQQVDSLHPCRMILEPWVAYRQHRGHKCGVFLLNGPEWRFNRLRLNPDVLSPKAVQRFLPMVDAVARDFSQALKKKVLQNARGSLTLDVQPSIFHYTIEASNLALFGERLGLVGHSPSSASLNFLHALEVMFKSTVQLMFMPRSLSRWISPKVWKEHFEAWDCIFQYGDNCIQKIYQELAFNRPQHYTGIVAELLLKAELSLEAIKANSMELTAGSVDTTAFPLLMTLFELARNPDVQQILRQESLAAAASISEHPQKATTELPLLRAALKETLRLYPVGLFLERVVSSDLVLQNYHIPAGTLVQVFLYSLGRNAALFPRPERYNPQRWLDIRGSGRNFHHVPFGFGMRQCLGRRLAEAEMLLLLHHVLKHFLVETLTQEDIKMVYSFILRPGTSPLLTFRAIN
Procedure, shortened: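 The substrate (200 nM, 30 min) was added after a 2 hour compound pre-incubation in lentivirus-transduced V79 cells stably expressing human CYP11B2 plus rat NADPH-P450 reductase.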

**Q.** With `N#Cc1ccc(-c2cncc3c2OCCN3S(=O)(=O)c2ccc(C(F)(F)F)cc2)cc1` [O11, 4-(4-((4-(Trifluoromethyl)phenyl)sulfonyl)-3,4-dihydro-2H-pyrido[4,3-b][1,4]oxazin-8-yl)benzonitrile] as the molecule, how does the pIC50 (human CYP11B1) read?
**A.** The pIC50 was 8.70.

**Q.** And the pIC50 (human CYP11B2)?
**A.** Its pIC50 is 10.40.

**Q.** What does the source list for `N#Cc1ccc(-c2cncc3c2OCCN3C(=O)CCc2ccc(F)cc2)cc1` [O47, 4-(4-(3-(4-Fluorophenyl)propanoyl)-3,4-dihydro-2H-pyrido[4,3-b][1,4]oxazin-8-yl)benzonitrile]?
**A.** pIC50 (human CYP11B1): 7.28; pIC50 (human CYP11B2): 8.42

**Q.** With `N#Cc1ccc(-c2cncc3c2OCCN3S(=O)(=O)c2cccc3ccccc23)cc1` [O17, 4-(4-(Naphthalen-1-ylsulfonyl)-3,4-dihydro-2H-pyrido[4,3-b][1,4]oxazin-8-yl)benzonitrile] as the molecule, how does the pIC50 (human CYP11B1) read?
**A.** The pIC50 was 8.19.

**Q.** And the pIC50 (human CYP11B2)?
**A.** The pIC50 was 9.41.

**Q.** With `N#Cc1ccc(-c2cncc3c2OCCN3S(=O)(=O)c2cccc(C(F)(F)F)c2)cc1` [O12, 4-(4-((3-(Trifluoromethyl)phenyl)sulfonyl)-3,4-dihydro-2H-pyrido[4,3-b][1,4]oxazin-8-yl)benzonitrile] as the molecule, how does the pIC50 (human CYP11B1) read?
**A.** The pIC50 was 9.13.

**Q.** What about the pIC50 (human CYP11B2) of the same molecule?
**A.** The pIC50 was 9.74.

**Q.** Which results are given for `N#Cc1ccc(S(=O)(=O)N2CCSc3c(-c4ccc5nc[nH]c5c4)cncc32)cc1` [S49, 4-((8-(1H-Benzo[d]imidazol-6-yl)-2,3-dihydro-4H-pyrido[4,3-b][1,4]thiazin-4-yl)sulfonyl)benzonitrile]?
**A.** pIC50 (human CYP11B1): 8.15; pIC50 (human CYP11B2): 7.57

**Q.** How did the pIC50 (human CYP11B1) turn out when `N#Cc1ccc(-c2cncc3c2SCCN3C(=O)c2cccc(C#N)c2)cc1` [S95, 3-(8-(4-Cyanophenyl)-3,4-dihydro-2H-pyrido[4,3-b][1,4]thiazine-4-carbonyl)benzonitrile] was run?
**A.** The pIC50 was 5.69.

**Q.** And the pIC50 (human CYP11B2)?
**A.** Its pIC50 is 7.10.

**Q.** What does the source list for `N#Cc1ccc(-c2cncc3c2SCCN3C(=O)c2ccc(Cl)cc2)cc1` [S92, 4-(4-(4-Chlorobenzoyl)-3,4-dihydro-2H-pyrido[4,3-b][1,4]thiazin-8-yl)benzonitrile]?
**A.** pIC50 (human CYP11B1): 6.07; pIC50 (human CYP11B2): 7.89

**Q.** `N#Cc1ccc(-c2cncc3c2OCCN3S(=O)(=O)c2ccccc2)cc1` [O1, 4-(4-(Phenylsulfonyl)-3,4-dihydro-2H-pyrido[4,3-b][1,4]oxazin-8-yl)benzonitrile] was tested. Which pIC50 (human CYP11B1) did it give?
**A.** The pIC50 was 9.66.

**Q.** And the pIC50 (human CYP11B2)?
**A.** Its pIC50 is 9.80.

**Q.** What does the source list for `O=S(=O)(C1CCNCC1)N1CCSc2c(-c3cc4cc(Cl)ccc4o3)cncc21` [S61, 8-(5-Chlorobenzofuran-2-yl)-4-(piperidin-4-ylsulfonyl)-3,4-dihydro-2H-pyrido[4,3-b][1, 4]thiazine]?
**A.** pIC50 (human CYP11B1): 6.16; pIC50 (human CYP11B2): 7.66

**Q.** `COc1cccc(CC(=O)N2CCc3c(-c4ccc(C#N)cc4)cncc32)c1` [C68, 4-(1-(2-(3-Bethoxyphenyl)acetyl)-2,3-dihydro-1H-pyrrolo[2,3-c]pyridin-4-yl)benzonitrile] was tested. Which pIC50 (human CYP11B1) did it give?
**A.** The pIC50 was 7.59.

**Q.** What about the pIC50 (human CYP11B2) of the same molecule?
**A.** Its pIC50 is 9.15.

**Q.** With `N#Cc1ccc(-c2cncc3c2ccn3S(=O)(=O)c2cccc([N+](=O)[O-])c2)cc1` [E13, 4-(1-((3-Nitrophenyl)sulfonyl)-1H-pyrrolo[2,3-c]pyridin-4-yl)benzonitrile] as the molecule, how does the pIC50 (human CYP11B1) read?
**A.** Its pIC50 is 9.30.

**Q.** And the pIC50 (human CYP11B2)?
**A.** The pIC50 was 9.52.

**Q.** How did the pIC50 (human CYP11B1) turn out when `O=C1Cc2cc(-c3cncc4c3OCCN4C(=O)C3CN(Cc4cccc(F)c4)C3)ccc2N1` [O89, 5-(4-(1-(3-Fluorobenzyl)azetidine-3-carbonyl)-3,4-dihydro-2H-pyrido[4,3-b][1,4]oxazin-8-yl)indolin-2-one] was run?
**A.** Its pIC50 is 5.59.

**Q.** What about the pIC50 (human CYP11B2) of the same molecule?
**A.** Its pIC50 is 7.81.

**Q.** What does the source list for `O=C(c1ccc(F)cc1)n1ccc2c(-c3cc4ccccc4s3)cncc21` [E31, (4-(Benzo[b]thiophen-2-yl)-1H-pyrrolo[2,3-c]pyridin-1-yl)(4-fluorophenyl)methanone]?
**A.** pIC50 (human CYP11B1): 6.20; pIC50 (human CYP11B2): 8.00

**Q.** What does the source list for `N#Cc1ccc(-c2cncc3c2OCCN3C(=O)CCc2ccc(C(F)(F)F)cc2)cc1` [O53, 4-(4-(3-(4-(Trifluoromethyl)phenyl)propanoyl)-3,4-dihydro-2H-pyrido[4,3-b][1,4]oxazin-8-yl)benzonitrile]?
**A.** pIC50 (human CYP11B1): 7.26; pIC50 (human CYP11B2): 8.09

— patent publication US20260092074A1, “Annelated Pyridines as Steroidogenesis Inhibitors, Preparation Method and Use Thereof” (Guangzhou Vinnocent Pharmaceutical Limited, priority 2022, published 2026)
